Experiments:
HepAD38 cells = test: Cell viability assay (AlamarBlue) in HepAD38 cells; conditions: HepAD38 cells with 0.3 μg/ml tetracycline, six days incubation, AlamarBlue
HBV core protein = target: T1, HBV core protein (UniProt P03146); test: Biochemical capsid assembly assay (fluorescence quenching); design: species or system hepatitis B virus; conditions: BODIPY-FL labelled core protein, 300 μM NaCl, read 6 min after start; read-out: Assembly Activity (IC50)
T1 construct: fused on or other part: BODIPY-FL maleimide label on the C-terminal Cys150
Procedure, shortened: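 Assembly-induced fluorescence quenching (477/525 nm) was measured 6 min after NaCl addition ([…]), against 2.5 M and 0 M NaCl controls. The labelled C150 core dimer (truncated at 149) at 1.0-2.0 μM in HEPES pH 7.5 was tested with eight half-log compound dilutions, top 100, 31.6 or 10 μM. EC50 was obtained by non-linear fit from triplicates run three times.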

HBV = test: Determination of HBV DNA from the supernatants of HepAD38 cells (anti-HBV activity); type: cell-based, hepatitis B virus; conditions: HBV DNA in HepAD38 supernatant, day 6, qPCR; read-out: Cell Activity (EC50)
Procedure, shortened: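 Supernatant viral DNA was measured by LightCycler qPCR, calibrated with pCH-9/3091 plasmid, 6 days after tetracycline-free HepAD38 cultures received half-log serial compound dilutions; untreated and tetracycline-treated cells served as controls; EC50 was fitted by non-linear regression.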

T1 sequence (P03146 whole entry, looked up, the tested form may be a part): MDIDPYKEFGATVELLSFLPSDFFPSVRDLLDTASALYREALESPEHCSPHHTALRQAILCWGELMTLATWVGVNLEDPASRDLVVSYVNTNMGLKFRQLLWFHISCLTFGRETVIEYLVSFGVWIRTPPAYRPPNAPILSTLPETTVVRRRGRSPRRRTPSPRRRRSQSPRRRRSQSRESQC

Substance | CC50 (HepAD38 cells) [µM] | IC50 (HBV core protein) [µM] | EC50 (HBV) [µM]
N-ethyl-5-(1H-indole-2-carbonyl)-N-(2-methoxyethyl)-1H,4H,5H,6H,7H-pyrazolo[4,3-c]pyridine-3-carboxamide [Example 294] | > 10 | 5 to 10 | < 1
N-(2,3-dihydroxypropyl)-5-(1H-indole-2-carbonyl)-N-methyl-2H,4H,5H,6H,7H-pyrazolo[4,3-c]pyridine-3-carboxamide [Example 253] | > 10 | 5 to 10 | 1 to 25
5-[4-(1,1-difluoroethyl)-1H-indole-2-carbonyl]-N-[1-(methoxymethyl)cyclopropyl]-N-methyl-1H,4H,5H,6H,7H-pyrazolo[4,3-c]pyridine-3-carboxamide [Example 301] | > 10 | < 5 | < 1
N-[1-(methoxymethyl)cyclopropyl]-N-methyl-5-(4-methyl-1H-indole-2-carbonyl)-1H,4H,5H,6H,7H-pyrazolo[4,3-c]pyridine-3-carboxamide [Example 260] | > 10 | < 5 | < 1

Reference: patent US11236087B2, “Highly active pyrazolo-piperidine substituted indole-2-carboxamides active against the hepatitis B virus (HBV)” (AiCuris GmbH & Co. KG, priority 2017, dated 2022)
